Experimental data as given in ChEMBL document CHEMBL5257141, “PROTAC: Harnessing Targeted Chimeras for Selective BCL-2 Degradation in Cancer Treatment” (ACS Med Chem Lett, 2023).

What follows are compounds tested against Apoptosis regulator Bcl-2 (Homo sapiens, UniProt P10415) (assay: Inhibition of BCL-2 (unknown origin) using FITC-Ahx-GQVGRQLAIIGDDINR-CONH2 as substrate incubated for 4 hrs by fluorescence polarization competition assay).
Sequence of Apoptosis regulator Bcl-2 (P10415 whole entry): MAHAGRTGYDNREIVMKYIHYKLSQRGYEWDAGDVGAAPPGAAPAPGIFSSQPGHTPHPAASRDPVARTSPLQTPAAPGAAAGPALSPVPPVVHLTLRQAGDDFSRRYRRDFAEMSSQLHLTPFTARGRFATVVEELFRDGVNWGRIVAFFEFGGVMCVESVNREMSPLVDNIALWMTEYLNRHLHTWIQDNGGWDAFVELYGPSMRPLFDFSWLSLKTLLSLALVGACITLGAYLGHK
Work on COc1cc(C(=O)NCCNc2ccc(S(=O)(=O)NC(=O)c3ccc(N4CCN(CC5=C(c6ccc(Cl)cc6)CC(C)(C)CC5)CC4)cc3Oc3cnc4[nH]ccc4c3)cc2[N+](=O)[O-])ccc1NC(=O)[C@@H]1N[C@@H](CC(C)(C)C)[C@](C#N)(c2ccc(Cl)cc2F)[C@H]1c1cccc(Cl)c1F yielded an IC50 of under 0.02 µM.
Work on COc1cc(C(=O)NCCOCCOCCNc2ccc(S(=O)(=O)NC(=O)c3ccc(N4CCN(CC5=C(c6ccc(Cl)cc6)CC(C)(C)CC5)CC4)cc3Oc3cnc4[nH]ccc4c3)cc2[N+](=O)[O-])ccc1NC(=O)[C@@H]1N[C@@H](CC(C)(C)C)[C@](C#N)(c2ccc(Cl)cc2F)[C@H]1c1cccc(Cl)c1F yielded an IC50 of under 0.02 µM.
With CC1(C)CCC(CN2CCN(c3ccc(C(=O)NS(=O)(=O)c4ccc(NCCOCCOCCNC(=O)CCNC(=O)COc5cccc6c5C(=O)N(C5CCC(=O)NC5=O)C6=O)c([N+](=O)[O-])c4)c(Oc4cnc5[nH]ccc5c4)c3)CC2)=C(c2ccc(Cl)cc2)C1 (stereo not given) the IC50 was under 0.02 µM.
For CC1(C)CCC(CN2CCN(c3ccc(C(=O)NS(=O)(=O)c4ccc(NCCNC(=O)COc5cccc6c5C(=O)N(C5CCC(=O)NC5=O)C6=O)c([N+](=O)[O-])c4)c(Oc4cnc5[nH]ccc5c4)c3)CC2)=C(c2ccc(Cl)cc2)C1 (stereo not given), the IC50 was under 0.02 µM.
In the case of CC1(C)CCC(CN2CCN(c3ccc(C(=O)NS(=O)(=O)c4ccc(NCCOCCOCCNC(=O)COc5cccc6c5C(=O)N(C5CCC(=O)NC5=O)C6=O)c([N+](=O)[O-])c4)c(Oc4cnc5[nH]ccc5c4)c3)CC2)=C(c2ccc(Cl)cc2)C1 (stereo not given), the IC50 is reported as under 0.02 µM.
